Where “and” joins values, the source holds several entries; their conditions need not be identical. Equal entries are not always repeated.

The source of these data is patent US6979664B1, “Composition for accelerating seed germination and plant growth” (Bios Agriculture Inc., priority 1998, dated 2005).

Type in all cases: in vivo
Experiment [1] relates to potato microtubers. The experiment can be described thus: sprouting of microtubers cold-stored 3 weeks, dormancy-breaking agents incl. anti-ABA. The following applies: evaluated at 2 weeks. As for the experimental part: Microtubers (200–600 mg) were cold-stored for 3 wk prior to the experiment. Seven microtubers were used per treatment. Treatments included 24 h soaks in anti-ABA or GA3 (500 and 250 mg l^−1, respectively) applied alone or in combination, GA3 (500 mg l^−1 in combination with 100% signal solution, and water. Bromoethane (0.2 ml l^−1) and control treatments were also performed. Observations were made after 2 wk in the dark at room temperature (20° C.). Data included number of sprouted microtubers and number of multiple sprouts. Means of sprout number were calculated only from microtubers that had sprouted.

In experiment [2] the test system is potato microtubers. The experiment can be described thus: sprouting and multiple sprouting of microtubers cold-stored 8 wk. The following applies: Microtuber (CS8W); for Sprouting (number of sprouted tubers): GA3 500 mg l^−1 / 100% signal solution / Bromoethane 0.2 ml l^−1. The method, then:
(§1) Microtubers (200–500 mg) cold-stored for 8 wk and minitubers (20–35 g) cold-stored for 0, 2, or 8 wk were used for these experiments. BE (0.2 ml l^−1) and mechanical injury (cutting in half, microwaving at full power for 10 sec) were compared with GA3 (500 mgl^−1), 100% signal solution, water soaking, and control treatments. Six microtubers or minitubers were used per treatment. Observations were made at 1, 2, 3, and 4 wk intervals and the number of sprouted tubers were counted. The evaluation period was extended because tubers with little or no cold storage treatment took longer to sprout.

The test system of experiment [3] is potato minitubers. The experiment can be described thus: sprouting and multiple sprouting of minitubers cold-stored 0, 2 or 8 wk. Particulars: for Sprouting (number of sprouted tubers): GA3 500 mg l^−1 / 100% signal solution / Bromoethane 0.2 ml l^−1; for number of tubers with multiple sprouts: six tubers per treatment, doses as title. The method, then: as §1
Experiment [4] has as its system potato minitubers. The experiment can be described thus: harvests after 60 d from minitubers forced to break dormancy (greenhouse pots). Particulars: GA3 500 mg l^−1 / 100% signal solution / BE 0.2 m l^−1; for Mean number of tubers produced per replicate / Mean fresh weight: harvest after 60 d; for Mean number sprouts at planting ± SE: minitubers cold-stored 8 wk, 3 wk after treatment; for Mean fresh weight: tubers per replicate (pot). The method, then:
Minitubers (20–35 g) that were cold-stored for 8 wk were given dormancy-releasing treatments including 24 h soaking in GA3 (500 mg l^−1), 100% signal solution, or water. Other treatments included BE (0.2 m l^−1), cutting in half, and the control. […] Five minitubers per treatment were individually planted into 11×12 cm plastic pots in the greenhouse. The potting mixture was 2:1 peat:perlite without fertilizer added. The pots were arranged in a complete randomized design and watered equally every alternate day. Harvest occurred after 60 d and tuber yields (number and fresh weight) were recorded.

In experiment [5] the test system is potato minitubers. The experiment can be described thus: GA3 and 100% signal solution, dormancy breaking of minitubers cold-stored 3 weeks. The method, then: Minitubers (20–30 g) with 3 wk cold storage treatment were soaked for 24 h in 500 mg l^−1 GA3, 100% signal solution, or a mixture of the two. Another treatment involved successive soaking for 12 h each, in first GA3, and then signal solution. A control treatment without soaking was also performed. Eight minitubers were used per treatment which were applied at room temperature (20° C.). […] were observed after 2 wk and the number of sprouted minitubers and the number with multiple sprouts were counted.

Experiment [6] deals with potato microtubers. The experiment can be described thus: dormancy breaking of potato microtubers cold-stored 8 wk. The following applies: GA3 500 mgl^−1. As for the experimental part:
Treatments were carried out on microtubers (200–400 mg) that had been cold-stored for 8 wk to determine their effect on breaking dormancy. Signal solution was used at full strength (100%) or diluted to 20% (as for soybean), 12%, or 6% of full strength. GA3 (500 mg l^−1), water soaking, and control treatments were performed for comparison purposes. Microtuber soaking treatments lasted 24 h and then incubation occurred either in the light (40 μmol m^−2s^−1 cool-white fluorescent) or in the dark. Five microtubers were used in each treatment. Observations for sprouted microtubers were made at 1 and 2 wk.
One hundred % signal solution was as effective as GA3 (500 mg l^−1) when evaluated after 1 wk with respect to the number of sprouted microtubers. […] One hundred % signal solution induced multiple sprouts and dark incubation favoured sprouting as compared with the light regime after 1 wk of incubation. The exact cause of dark incubation favouring 100% signal solution is not understood.

In experiment [7] the test system is alfalfa (Medicago sativa). The experiment can be described thus: germination of alfalfa seeds (petri plate). Particulars: after 24 h of treatment. The method, then:
Following the methods described above, the LCO most abundantly produced by R. meliloti (Nod Rm-V(C16:2, S)) was isolated and tested on alfalfa (Medicago sativa) seeds. Briefly, 10 seeds were placed in a disk of filter paper on a petri plate. The filter paper was wetted with 5 ml of the appropriate LCO solution. Data were taken at 12 hour intervals upon the radicle (an embryonic root). The number of seed with an emerged radicle were counted. Each treatment was repeated four times. The data presented in table 9 indicate a clear acceleration of growth. In this case no standard for HPLC calibration was available, so a relative dilution series was used. […] In each case, a stimulation of seed germination was observed. Of note, Rhizobium leguminosarum produces a large number of LCOs.

[8] abbreviates: single agent 24 h soak (GA3 500 mgl^−1 or 100% SS), after 2 wk.

For `CCBr` [Bromoethane], the “Mean No. sprouts ± SE” value with potato microtubers [1] (Bromoethane (0.2 ml l^−1)) is 1.0 ± 0. Further, the No. sprouted microtubers in the experiment with potato microtubers [1] (Bromoethane (0.2 ml l^−1)) is listed as 1/7. The “Sprouting (number of sprouted tubers)” value is listed as 2/6 in the experiment with potato microtubers [2] (1 wk); 4/6 in the experiment on potato microtubers [2] (2 wk); 4/6 with potato microtubers [2] (3 wk); 6/6 in the experiment on potato microtubers [2] (4 wk); 0 in the experiment on potato minitubers [3] (Minituber (CS2W), 1 wk); 0 with potato minitubers [3] (Minituber (CS2W), 2 wk). In addition, the “Sprouting (number of sprouted tubers)” value with potato minitubers [3] (Minituber (CS2W), 3 wk) is reported as 0; in the experiment with potato minitubers [3] (Minituber (CS2W), 4 wk), 2/6; in the experiment on potato minitubers [3] (Minituber (CS8W), 1 wk) it was 3/6; in the experiment with potato minitubers [3] (Minituber (CS8W), 2 wk) it was 4/6; in the experiment with potato minitubers [3] (Minituber (CS8W), 3 wk), 6/6; in the experiment on potato minitubers [3] (Minituber (CS8W), 4 wk) it was 6/6. The “Sprouting (number of sprouted tubers)” value with potato minitubers [3] (Minituber (NCS), 1 wk) is reported as 0; in the experiment on potato minitubers [3] (Minituber (NCS), 2 wk), 0; in the experiment with potato minitubers [3] (Minituber (NCS), 3 wk), 0; in the experiment on potato minitubers [3] (Minituber (NCS), 4 wk), 0. Besides, the “number of tubers with multiple sprouts” value in the experiment on potato minitubers [3] (Minituber (CS8W), 2 wk) was “(1)”; in the experiment with potato minitubers [3] (Minituber (CS8W), 2 wk, listed as BE), 1/6; with potato minitubers [3] (Minituber (CS8W), 3 wk), “(4)”; in the experiment on potato minitubers [3] (Minituber (CS8W), 4 wk), “(4)”. Also, the “Mean number of tubers produced per replicate” value with potato minitubers [4] was determined as 2.0. In addition, the “Mean number sprouts at planting ± SE” value is 1.8 ± 0.20 in the experiment on potato minitubers [4] and 1.8±0.2 in the experiment with potato minitubers [4] (listed as BE). The same compound registered a Mean fresh weight in the experiment on potato minitubers [4] of 14.01 g·days.
`C=C1C[C@]23C[C@@]1(O)CC[C@H]2[C@@]12C=C[C@H](O)[C@@](C)(C(=O)O1)[C@H]2[C@@H]3C(=O)O` [GA3, gibberellic acid]: the sprouting with potato minitubers [5] (24 h soak, GA3 500 mg l^−1 alone or together with 100% signal solution, 2 wk) is listed as 100%. Besides, the results for the “Mean number of sprouts ± SE” value in the experiment with potato minitubers [5] (setting [8]), with potato microtubers [6] (+ light) and with potato microtubers [6] (− light) were 3.37 ± 0.62, 2.5 ± 0.5 and 2.5 ± 0.3, respectively. In addition, in the experiment with potato minitubers [5] (setting [8]), the “Number of minituber with multiple sprouts” value is 6/8. Further, the “Number of sprouted minituber” value in the experiment on potato minitubers [5] (setting [8]) is listed as 8/8. The “Mean No. sprouts ± SE” value with potato microtubers [1] (GA3 500 mgl^−1 24 h) is on record as 1.71±0.28. In the experiment with potato microtubers [1] (GA3 500 mgl^−1 24 h), the No. sprouted microtubers is on record as 7/7. For the same compound, the “Number of multiple sprouted microtubers (2 wk)” value with potato microtubers [6] (+ light) is 2/5; in the experiment on potato microtubers [6] (− light) it was 4/5. In addition, the “Number of sprouted microtubers” value with potato microtubers [6] (+ light, 1 wk) is 1/5; with potato microtubers [6] (+ light, 2 wk), 5/5; in the experiment on potato microtubers [6] (− light, 1 wk), 5/5; in the experiment on potato microtubers [6] (− light, 2 wk), 5/5. The “Sprouting (number of sprouted tubers)” value in the experiment on potato microtubers [2] (1 wk) was 4/6; in the experiment on potato microtubers [2] (2 wk) it was 5/6; in the experiment on potato microtubers [2] (3 wk), 6/6; in the experiment on potato microtubers [2] (4 wk), 6/6; in the experiment with potato minitubers [3] (Minituber (CS2W), 1 wk) it was 0; with potato minitubers [3] (Minituber (CS2W), 2 wk), 0/6 and 0. Moreover, the “Sprouting (number of sprouted tubers)” value is reported as 3/6 in the experiment with potato minitubers [3] (Minituber (CS2W), 3 wk); 5/6 in the experiment with potato minitubers [3] (Minituber (CS2W), 4 wk); 5/6 in the experiment on potato minitubers [3] (Minituber (CS8W), 1 wk); 6/6 with potato minitubers [3] (Minituber (CS8W), 2 wk); 6/6 with potato minitubers [3] (Minituber (CS8W), 3 wk); 6/6 in the experiment with potato minitubers [3] (Minituber (CS8W), 4 wk). For the same compound, the “Sprouting (number of sprouted tubers)” value was 0 in the experiment on potato minitubers [3] (Minituber (NCS), 1 wk); 0/6 and 0 in the experiment with potato minitubers [3] (Minituber (NCS), 2 wk); 3/6 in the experiment on potato minitubers [3] (Minituber (NCS), 3 wk); 4/6 in the experiment with potato minitubers [3] (Minituber (NCS), 4 wk). The “number of tubers with multiple sprouts” value was “(3)” in the experiment with potato microtubers [2] (3 wk, six tubers per treatment, doses as title); “(2)” in the experiment on potato minitubers [3] (Minituber (CS2W), 4 wk); “(6)” in the experiment on potato minitubers [3] (Minituber (CS8W), 3 wk); “(6)” in the experiment on potato minitubers [3] (Minituber (CS8W), 4 wk). In the experiment with potato minitubers [4], the “Mean number of tubers produced per replicate” value came to 3.6. In addition, the “Mean number sprouts at planting ± SE” value in the experiment on potato minitubers [4] came to 4.2±0.37. This compound also returned a Mean fresh weight in the experiment on potato minitubers [4] of 11.13 g·days.
In the case of `CCCCCC/C=C\CCCCC/C=C/C(=O)N[C@H]1[C@H](O[C@H]2[C@H](O)[C@@H](NC(C)=O)[C@H](O[C@H]3[C@H](O)[C@@H](NC(C)=O)[C@H](O[C@H]4[C@H](O)[C@@H](NC(C)=O)[C@H](O[C@H]5[C@H](O)[C@@H](NC(C)=O)C(O)O[C@@H]5COS(=O)(=O)O)O[C@@H]4CO)O[C@@H]3CO)O[C@@H]2CO)O[C@H](CO)[C@@H](O)[C@@H]1O` (stereo partly drawn) [Nod Rm-V(C16:2, S)], the “Percent germination” value in experiment [7] (10^−1 dilution) was determined as 26.6 ab Percent; in experiment [7] (10^−2 dilution), 26.6 ab Percent; in experiment [7] (10^−3 dilution), 36.6 a Percent.
